The results in this text go back to patent publication US20160270397A1, “Herbicidal Composition Comprising ACC Inhibitors” (BASF SE, priority 2013, published 2016).

Like-named read-outs stand apart in the source and are kept apart here.

For one assay, the system named is AMARE. Put plainly: Greenhouse post-emergence treatment, herbicidal activity against AMARE. The class given is in vivo, Amaranthus retroflexus L. Here is the method: (§1) The culture containers used were plastic pots containing loamy sand with approximately 2-3.0% of organic matter. The seeds of the test plants were sown separately for each species.
(§2) For the post-emergence treatment, the test plants were grown to a plant height of from 3 to 15 cm, depending on the plant habit, and only then treated with the active compounds which had been suspended or emulsified in water. To this end, the test plants were either sown directly, and grown in the same containers, or they were first grown separately as seedlings and transplanted into the test containers a few days prior to treatment.
(§3) Depending on the species, the plants were kept at 10-25° C. and 20-35° C., respectively. The test period extended over 1 to 4 weeks. During this time, the plants were tended and their response to the individual treatments was evaluated.
(§4) Evaluation was carried out using a scale from 0 to 100. 100 means no emergence of the plants, or complete destruction of at least the above-ground parts, and 0 means no damage or normal course of growth.

The next assay deals with COMBE. Kind of assay: Greenhouse post-emergence treatment, herbicidal activity against COMBE. It is filed as in vivo, Commelina benghalensis. Here is the method:
as §1, §2, §3, §4

In the next assay the test system is IPOHE. Put plainly: Greenhouse post-emergence treatment, herbicidal activity against IPOHE. It is filed as in vivo, Ipomoea hederacea. Here is the method:
as §1, §2, §3, §4

For the next assay, the system named is LEFFA. Kind of assay: Greenhouse post-emergence treatment, herbicidal activity against LEFFA. The class given is in vivo, Leptochloa fusca subsp. Fascicularis. The procedure:
as §1, §2, §3, §4

A further assay deals with PHACA. Put plainly: Greenhouse post-emergence treatment, herbicidal activity against PHACA. The class given is in vivo, Phalaris canariensis L. Here is the method:
as §1, §2, §3, §4

A further assay relates to SEBEX. Kind of assay: Greenhouse post-emergence treatment, herbicidal activity against SEBEX. The class given is in vivo, Sesbania exaltata. Here is the method: as §1, §2, §3, §4
In a further assay the test system is SETVI. Put plainly: Greenhouse post-emergence treatment, herbicidal activity against SETVI. It is filed as in vivo, Setaria viridis L. Here is the method: as §1, §2, §3, §4
Another assay relates to BRADE. Kind of assay: Greenhouse post-emergence treatment, herbicidal activity against BRADE. The class given is in vivo, Brachiaria deflexa. The procedure:
as §1, §2, §3, §4

Turning to `C[C@@H](Oc1ccc(Oc2cnc3cc(Cl)ccc3n2)cc1)C(=O)O` [a1.14, quizalofop-P], the “herbicidal activity against AMARE, found” value in the assay with AMARE (a1.14 7.5 g/ha a.i.) was 20%. Moreover, the “herbicidal activity against COMBE, found” value with COMBE (a1.14 10 g/ha a.i.) and in the assay on COMBE (a1.14 15 g/ha a.i.) was 0% throughout. Further, the “herbicidal activity against IPOHE, found” value is listed as 0% in the assay with IPOHE (Example 3, a1.14 12 g/ha a.i.) and 5% with IPOHE (Example 5, a1.14 12 g/ha a.i.). Further, the “herbicidal activity against LEFFA, found” value with LEFFA (Example 10, a1.14 10 g/ha a.i.) is listed as 40%; in the assay with LEFFA (Example 11, a1.14 10 g/ha a.i.) it was 40%; in the assay with LEFFA (Example 12, a1.14 10 g/ha a.i.), 40%; in the assay with LEFFA (Example 13, a1.14 10 g/ha a.i.) it was 40%; in the assay on LEFFA (a1.14 15 g/ha a.i.), 65%. For the same compound, the “herbicidal activity against PHACA, found” value in the assay with PHACA (a1.14 15 g/ha a.i.) stood at 65%. The “herbicidal activity against SEBEX, found” value in the assay on SEBEX (a1.14 15 g/ha a.i.) was 0%. Also, the “herbicidal activity against SETVI, found” value in the assay on SETVI (a1.14 7.5 g/ha a.i.) is given as 75%; in the assay with SETVI (a1.14 15 g/ha a.i.) it was 85%.
For `CCCC(=NOCC)C1=C(O)CC(C2CCCSC2)CC1=O` (stereo not shown) [a1.19, cycloxydim], the “herbicidal activity against AMARE, found” value amounted to 0% with AMARE (Example 2, a1.19 10 g/ha a.i.) and 0% with AMARE (Example 6, a1.19 10 g/ha a.i.). Further, in the assay with BRADE (a1.19 10 g/ha a.i.), the “herbicidal activity against BRADE, found” value was 65%. In addition, the “herbicidal activity against COMBE, found” value in the assay with COMBE (a1.19 10 g/ha a.i.) worked out at 0%. For the same compound, the “herbicidal activity against IPOHE, found” value is given as 10% with IPOHE (Example 1, a1.19 10 g/ha a.i.); 10% with IPOHE (Example 6, a1.19 10 g/ha a.i.); 0% with IPOHE (a1.19 5 g/ha a.i.). For the same compound, the pest or weed control at 5 g/ha in the assay on LEFFA (Diplachne fusca, a1.19 5 g/ha a.i., read-out: herbicidal activity against LEFFA, found) came to 50%.
For `COc1cc(OC)nc(NC(=O)NS(=O)(=O)c2c(-c3nnn(C)n3)cnn2C)n1` [b2.1, azimsulfuron], the “herbicidal activity against COMBE, found” value in the assay on COMBE (b2.1 5 g/ha a.i.) is listed as 0%. In the assay with IPOHE (b2.1 10 g/ha a.i.), the “herbicidal activity against IPOHE, found” value came to 90%.
As for `COc1cc(OC)nc(NC(=O)NS(=O)(=O)Cc2ccccc2C(=O)O)n1` [b2.2, bensulfuron], the “herbicidal activity against AMARE, found” value with AMARE (b2.2 31 g/ha a.i.) is 80%. For the same compound, the “herbicidal activity against BRADE, found” value in the assay on BRADE (b2.2 31 g/ha a.i.) was 0%.
Regarding `COc1cnc(OC)n2nc(NS(=O)(=O)c3c(OCC(F)F)cccc3C(F)(F)F)nc12` [b2.12, penoxsulam], the “herbicidal activity against IPOHE, found” value in the assay with IPOHE (Example 3, b2.12 8 g/ha a.i.) was 80%; in the assay with IPOHE (Example 4, b2.12 8 g/ha a.i.), 80%. In addition, the pest or weed control at 8 g/ha with LEFFA (Diplachne fusca, b2.12 8 g/ha a.i., read-out: herbicidal activity against LEFFA, found) was determined as 0%.
For the compound `COc1cc(OC)nc(Oc2cccc(Oc3nc(OC)cc(OC)n3)c2C(=O)O)n1` [b2.13, bispyribac], the “herbicidal activity against AMARE, found” value in the assay on AMARE (b2.13 5 g/ha a.i.) amounted to 90%. The “herbicidal activity against IPOHE, found” value in the assay on IPOHE (Example 5, b2.13 5 g/ha a.i.) worked out at 75%; with IPOHE (Example 6, b2.13 5 g/ha a.i.), 75%. Besides, the pest or weed control at 5 g/ha in the assay on LEFFA (Diplachne fusca, Example 10, b2.13 5 g/ha a.i., read-out: herbicidal activity against LEFFA, found) worked out at 65%. Further, the “herbicidal activity against LEFFA, found” value in the assay with LEFFA (Example 11, b2.13 5 g/ha a.i.) stood at 65%.
In the case of `CC(C)N1C(=O)c2ccccc2NS1(=O)=O` [b3.1, bentazone], the “herbicidal activity against COMBE, found” value with COMBE (b3.1 250 g/ha a.i.) worked out at 95%. Further, in the assay on LEFFA (Diplachne fusca, b3.1 250 g/ha a.i., read-out: herbicidal activity against LEFFA, found), the pest or weed control at 250 g/ha stood at 10%.
Take `CC(C)N(C)S(=O)(=O)NC(=O)c1cc(-n2c(=O)cc(C(F)(F)F)n(C)c2=O)c(F)cc1Cl` [b4.3, saflufenacil]: the pest or weed control at 2.5 g/ha in the assay with LEFFA (Diplachne fusca, Example 11, b4.3 2.5 g/ha a.i., read-out: herbicidal activity against LEFFA, found) stood at 65%. Also, the “herbicidal activity against LEFFA, found” value in the assay with LEFFA (Example 12, b4.3 2.5 g/ha a.i.) is on record as 65%.
With `CC1(C)CON(Cc2ccccc2Cl)C1=O` [b5.1, clomazone], in the assay on COMBE (b5.1 75 g/ha a.i.), the “herbicidal activity against COMBE, found” value is 70%. Moreover, the “herbicidal activity against SETVI, found” value in the assay with SETVI (b5.1 75 g/ha a.i.) stood at 15%.
`COc1c(Cl)ccc(Cl)c1C(=O)O` [b7.2, dicamba]: the pest or weed control at 250 g/ha in the assay with LEFFA (Diplachne fusca, b7.2 250 g/ha a.i., read-out: herbicidal activity against LEFFA, found) was found to be 25%.
As to `O=C(O)c1c(Cl)ccc2cc(Cl)cnc12` [b7.5, quinclorac], the “herbicidal activity against AMARE, found” value in the assay with AMARE (b7.5 180 g/ha a.i.) is recorded as 50%. Also, the “herbicidal activity against COMBE, found” value in the assay with COMBE (b7.5 7.5 g/ha a.i.) came out at 0%. Further, in the assay with LEFFA (Diplachne fusca, Example 12, b7.5 75 g/ha a.i., read-out: herbicidal activity against LEFFA, found), the pest or weed control at 75 g/ha turned out to be 65%. For the same compound, the “herbicidal activity against LEFFA, found” value with LEFFA (Example 13, b7.5 75 g/ha a.i.) was found to be 65%. Moreover, in the assay on SETVI (b7.5 90 g/ha a.i.), the “herbicidal activity against SETVI, found” value stood at 65%.
For the compound `O=C(O)COc1nc(Cl)c(Cl)cc1Cl` [b7.6, triclopyr], the pest or weed control at 50 g/ha with LEFFA (Diplachne fusca, b7.6 50 g/ha a.i., read-out: herbicidal activity against LEFFA, found) was 20%. Besides, the “herbicidal activity against PHACA, found” value in the assay with PHACA (b7.6 50 g/ha a.i.) worked out at 0%. Besides, the “herbicidal activity against SEBEX, found” value in the assay on SEBEX (b7.6 50 g/ha a.i.) is on record as 50%.
